Values after ≈ are worked out from the molar mass of the structure shown. Where two headings read alike, the source gives them in different places. Marks after values point to notes of the source that are not given here.
Columns and labels:
[1] = test system: methicillin-resistant Staphylococcus aureus MRSA-2 (clinical isolate); experiment: MIC broth microdilution, MRSA-2; type: cell-based; conditions: for MIC: read-out: MIC MRSA-2
Description: (§1) The minimum inhibitory concentration (MIC) for each tested compound was determined by the broth microdilution method as recommended by the Clinical and Laboratory Standards Institute (CLSI). In a 96-well plate, eleven two-fold serial dilutions of each compound were made in a final volume of 100 μL Luria Broth. Each well was inoculated with ˜10^5 bacterial cells at the initial time of incubation, prepared from a fresh log phase culture (OD600 of 0.5 to 1.0 depending on bacterial strain). The MIC was defined as the lowest concentration of compound that prevented bacterial growth after incubating 16 to 18 hours at 37° C. (MIC values were supported by spectrophotometric readings at OD600). DMSO served as our vehicle and negative control in each microdilution MIC assay. DMSO was serially diluted with a top concentration of 1% v/v.
as §1, with “for each compound was” for “for each tested compound was”, “Standards Institute (CLSI).^6 In a” for “Standards Institute (CLSI). In a”, “concentration of test compound that” for “concentration of compound that”, “37° C. The concentration range tested for each compound during this study was 0.10 to 100 μM. DMSO served” for “37° C. (MIC values were supported by spectrophotometric readings at OD600). DMSO served”, “1% v/v. All MIC values were obtained from a minimum of three independent experiments.” for “1% v/v.”

[2] = test system: methicillin-resistant Staphylococcus epidermidis (MRSE strain ATCC 35984); experiment: MIC broth microdilution, MRSE 35984; type: cell-based; conditions: for MIC S. epidermidis MRSE 35984: Table 1A
Description: as §1
as §1, with “for each compound was” for “for each tested compound was”, “Standards Institute (CLSI).^6 In a” for “Standards Institute (CLSI). In a”, “concentration of test compound that” for “concentration of compound that”, “37° C. The concentration range tested for each compound during this study was 0.10 to 100 μM. DMSO served” for “37° C. (MIC values were supported by spectrophotometric readings at OD600). DMSO served”, “1% v/v. All MIC values were obtained from a minimum of three independent experiments.” for “1% v/v.”

[3] = test system: vancomycin-resistant Enterococcus faecium (VRE strain ATCC 700221); experiment: MIC broth microdilution, VRE 700221; type: cell-based; conditions: for MIC E. faecium VRE 700221: Table 1A
Description: as §1
as §1, with “for each compound was” for “for each tested compound was”, “Standards Institute (CLSI).^6 In a” for “Standards Institute (CLSI). In a”, “concentration of test compound that” for “concentration of compound that”, “37° C. The concentration range tested for each compound during this study was 0.10 to 100 μM. DMSO served” for “37° C. (MIC values were supported by spectrophotometric readings at OD600). DMSO served”, “1% v/v. All MIC values were obtained from a minimum of three independent experiments.” for “1% v/v.”

[4] = test system: Acinetobacter baumannii (ATCC 1794); experiment: MIC broth microdilution, A. baumannii 1794; type: cell-based; conditions: for MIC A. baumannii 1794: Table 1A
Description: as §1
as §1, with “for each compound was” for “for each tested compound was”, “Standards Institute (CLSI).^6 In a” for “Standards Institute (CLSI). In a”, “concentration of test compound that” for “concentration of compound that”, “37° C. The concentration range tested for each compound during this study was 0.10 to 100 μM. DMSO served” for “37° C. (MIC values were supported by spectrophotometric readings at OD600). DMSO served”, “1% v/v. All MIC values were obtained from a minimum of three independent experiments.” for “1% v/v.”

[5] = test system: Pseudomonas aeruginosa (PAO1); experiment: MIC broth microdilution, PAO1; type: cell-based
Description: as §1
as §1, with “for each compound was” for “for each tested compound was”, “Standards Institute (CLSI).^6 In a” for “Standards Institute (CLSI). In a”, “concentration of test compound that” for “concentration of compound that”, “37° C. The concentration range tested for each compound during this study was 0.10 to 100 μM. DMSO served” for “37° C. (MIC values were supported by spectrophotometric readings at OD600). DMSO served”, “1% v/v. All MIC values were obtained from a minimum of three independent experiments.” for “1% v/v.”

[6] = test system: human red blood cells (hRBC); experiment: Hemolysis of red blood cells; type: cell-based
Description: The washing was repeated three times with the buffer. In a 96-well plate, test compounds were added to the buffer from DMSO stocks. […] The plate was then incubated for 1 hour at 37° C. After incubation, the plate was centrifuged for 5 minutes at 3,500 rpm. Then 80 μL of the supernatant was transferred to another 96-well plate and the optical density (OD) was read at 405 nm. DMSO served as our negative control (0% hemolysis) while Triton X served as our positive control (100% hemolysis). […] All reported data correspond to three independent experiments. Ten-point dose-response curves were generated in 96-well plates to determine 50% hemolysis (HC50 values) of red blood cells.
The washing was repeated three times with the buffer. In 96-well plate, the test compounds were added to the buffer. Then 50 μL of 2% of hRBCs in the buffer were added to the test plate to make the final concentrations ranging from 0.2 to 200 μM of each test compound. The plate was then incubated for 1 hour at 37° C. After incubation, the plate was centrifuged for 5 minutes at 3500 rpm and then 80 μL of the supernatant was transferred to another 96-well plate and the Optical Density (OD) was read at 405 nm. DMSO served as our negative control (0% haemolysis) and Triton X served as our positive control (100% haemolysis). The HC50 (concentration of test compound required to lyse red blood cells by 50%) was calculated by plotting the dose-response curve (not shown) with Graphpad Prism 6.0. All data were obtained from three independent haemolysis experiments.

MRSA BAA-1707 = experiment: MIC broth microdilution, MRSA BAA-1707; type: cell-based, Staphylococcus aureus; conditions: for MIC MRSA 1707: Table 4
Description: as §1, with “The MIC was defined as the lowest concentration of compound that prevented bacterial growth after incubating 16 to 18 hours at 37° C.” left out
(§2) Each well was inoculated with ˜10^5 bacterial cells at the initial time of incubation, prepared from a fresh log phase culture (OD600 of 0.5 to 1.0 depending on bacterial strain). […] The concentration range tested for each compound during this study was 0.10 to 100 μM. DMSO served as our vehicle and negative control in each microdilution MIC assay. DMSO was serially diluted with a top concentration of 1% v/v. All MIC values were obtained from a minimum of three independent experiments.

[7] = test system: methicillin-sensitive Staphylococcus aureus ATCC 29213; experiment: MIC broth microdilution, S. aureus 29213; type: cell-based
Description: as §1, with “The MIC was defined as the lowest concentration of compound that prevented bacterial growth after incubating 16 to 18 hours at 37° C.” left out
as §2

| Compound | MIC MRSA-2 ([1]; Table 1A) | MIC MRSA-2 ([1]; Table 4) | MIC S. epidermidis MRSE 35984 [2] | MIC MRSE 35984 ([2]; Table 4) | MIC E. faecium VRE 700221 [3] | MIC VRE 700221 ([3]; Table 4) | MIC A. bau. 1794 ([4]; Table 4) | MIC PAO1 ([5]; Table 1A) [µM] | MIC PAO1 ([5]; Table 4) [µM] | MIC A. baumannii 1794 ([4]; in µM) | also measured |
| --- | --- | --- | --- | --- | --- | --- | --- | --- | --- | --- | --- |
| C=CC[n+]1ccn(CCCCCCCCCCCCCCCC)c1C.[Br-] [Compound 10] | 2.35^a | 2.35a micromolar | 0.78 µM | 0.78 µM | 2.35^a | 2.35a micromolar | 9.38a micromolar | > 100 | >100 |  | MIC A. baumannii 1794 [4]: 9.38^a |
| CCCCCCCCCCCCCCCCn1c(C)[n+](Cc2cccc(F)c2)c2ccccc21.[Br-] [Compound 27] | 6.25 µM | 6.25 µM | 9.38^a | 9.38a micromolar | 3.13 µM | 3.13 µM | >100 µM | > 100 | >100 | >100 |  |
| CCCCCCCCCCCCCCCCn1cc[n+](Cc2ccccc2C[n+]2ccn(CCCCCCCCCCCCCCCC)c2C)c1C [AB-3-35] | > 100 µM |  | > 100 µM |  | > 100 µM |  |  | > 100 |  | >100 | HC50 [6]: 34.5 µM |
| CCCCCCCCCCCCCCCCn1c(C)[n+](Cc2cccc(OC)c2)c2ccccc21.[Br-] [Compound 26] | 3.13 µM | 3.13 µM | 6.25 µM | 6.25 µM | 1.56 µM | 1.56 µM | >100 µM | > 100 | >100 | >100 |  |
| CCCCCCCCCCCCCCCCn1cc[n+](Cc2cc(Br)cc(Br)c2)c1C.[Br-] [Compound 20] | 37.5 µM | 37.5 µM | 12.5 µM | 12.5 µM | 6.25 µM | 6.25 µM | >100 µM | > 100 | >100 | >100 |  |
| CCCCCCCCCCCCCCCCn1cc[n+](Cc2ccc(Br)cc2)c1C.[Br-] [Compound 14] | 6.25 µM | 6.25 µM | 6.25 µM | 6.25 µM | 4.69^a | 4.69a micromolar | >100 µM | > 100 | >100 | >100* |  |
| CCCCCCCCCCCCCCCCn1ccnc1C [Compound 23, 1-hexadecyl-2-methyl-1H-imidazole] | 6.25 µM (≈ 1.92 µg/mL) |  | 3.13 µM (≈ 0.959 µg/mL) |  | 2.35^a |  |  | > 100 |  | >100 |  |
| CCCCCCCCCCCCCCCCn1cc[n+](Cc2cc(C(F)(F)F)cc(C(F)(F)F)c2)c1C.[Br-] [Compound 19] | 12.5 µM | 12.5 µM |  | 12.5 µM | 9.38^a | 9.38a micromolar | >100 µM | > 100 | >100 | >100 |  |
| Cc1nccn1Cc1ccccc1 [Compound 22] | > 100 µM |  | > 100 µM |  | > 100 µM |  |  | > 100 |  | >100 | MIC ([1]; Staphylococcus aureus, MRSA, Table 4): > 100 µM; MIC ([2]; Staphylococcus epidermidis, Table 4, read-out: MIC MRSE 35984): > 100 µM; MIC ([3]; Table 4, read-out: MIC VRE 700221): > 100 µM; MIC ([4]; Acinetobacter baumannii, ATCC1794, Table 4, read-out: MIC A. bau. 1794): > 100 µM; MIC ([5]; Pseudomonas aeruginosa, PAO1, Table 4): > 100 µM |
| CCCCCCCCCCCCCCCCn1cc[n+](Cc2ccc(C(C)C)cc2)c1C.[Br-] [Compound 12] | 6.25 µM | 6.25 µM | 2.35^a | 2.35a micromolar | 3.13 µM | 3.13 µM | >100 µM | > 100 | >100 | >100 |  |
| CCCCCCCCCCCCCCCCn1cc[n+](-c2ccc(C(F)(F)F)cc2)c1C.[Br-] [Compound 2] |  |  |  |  |  |  |  |  |  |  | RBC HC50 [6]: 13.4 µM; hemolytic activity [6]: potent hemolytic activities |
| CCCCCCCCCCCCCCCCn1cc[n+](-c2ccc(OC(F)(F)F)cc2)c1C.[Br-] [Compound 7] |  | 3.13 µM |  |  |  |  | 18.8a micromolar |  | >100 |  | MIC ([1]; Table 1B): 3.13 µM; MIC ([1]; Table 3): 3.13 µM; MIC MRSA BAA-1707 (MRSA BAA-1707; Table 1B): 4.69^a μM; MIC MRSA BAA-1707 (MRSA BAA-1707; Table 3): 4.69^a μM; MIC MRSA 1707 (MRSA BAA-1707): 4.69a micromolar; MIC S. aureus 29213 ([7]; Table 1B): 2.35^a μM; MIC S. aureus 29213 ([7]; Table 3): 2.35^a μM |
| CCCCCCCCCCCCCCCCn1cc[n+](Cc2ccc(C(C)(C)C)cc2)c1C.[Br-] [Compound 13] | 12.5 µM | 12.5 µM | 9.38^a | 9.38a micromolar | 4.69^a | 4.69a micromolar | >100 µM | > 100 | >100 | >100 |  |
| CCCCCCCCCCCCCCCCn1cc[n+](-c2ccc(Oc3ccccc3)cc2)c1C.[Br-] [Compound 5] |  | 4.69a micromolar |  |  |  |  | 37.5a micromolar |  | >100 |  | MIC MRSA-2 ([1]; Table 1B): 4.69^a μM; MIC MRSA-2 ([1]; Table 3): 4.69^a μM; MIC MRSA BAA-1707 (MRSA BAA-1707; Table 1B): 4.69^a μM; MIC MRSA BAA-1707 (MRSA BAA-1707; Table 3): 4.69^a μM; MIC MRSA 1707 (MRSA BAA-1707): 4.69a micromolar; MIC S. aureus 29213 ([7]; Table 1B): 4.69^a μM; MIC S. aureus 29213 ([7]; Table 3): 4.69^a μM |

Source: patent publication US11419335B2, “N-arylated analogues and uses thereof” (University of Florida Research Foundation, Incorporated, priority 2016, dated 2022)
